Source: patent US20120059051A1, “ORAL COMPOSITION CONTAINING EGCG AND LYCOPENE” (DSM IP ASSET B.V., priority 2006, published 2012)

What was measured:
MMP-1 = assay: Inhibition of UV-A induced expression of matrix metalloproteinase-1 (real time PCR) in primary human dermal fibroblasts; assay type: cell-based; details: skin fibroblasts; for % inhibition: inhibition of UV-A induced MMP-1 expression, 30 J/cm^2 UVA1; for MMP-1 expression relative to UV-A only treated cells: 30 J/cm^2 UVA1, MMP-1 RNA 24 hrs after irradiation, UV-A only = 100%
Protocol: Primary human dermal fibroblasts were cultured in EMEM without glutamine (Earle's Minimum Essential Medium), supplemented with antibiotics/antimycotics, 2 mM L-glutamine and 7.5% fetal calf serum at 37° C.[…] and grown to 100% confluency. Forty-eight hours prior to irradiation the cells were preincubated with the desired substances in EMEM (with AB/AM, L-Glutamine and 2% FCS. After 24 hours the medium was replaced by fresh medium with substances (fresh prepared). For irradiation, the medium was removed and after 6 wash steps with phosphate-buffered saline (PBS) replaced by phosphate-buffered saline (PBS). The plate was then exposed to 30 J/cm^2 UVA1. The UVA1 output was approximately 150 mW/cm^2. After irradiation the phosphate-buffered saline in the cell microplate was exchanged against culture medium (+7.5% FCS) with the substances (fresh prepared) and the cells were incubated in a CO2-incubator for further 24 hrs (MMP-1 determination). The culture medium was removed, the cells were rinsed with phosphate-buffered saline and the whole plate was frozen in liquid nitrogen. Total RNA was isolated using RNeasy Total RNA Kits (Qiagen, Hilden; Germany). The RNA concentration was determined via photometric measurement at 260/280. Aliquots of total RNA (75 ng) were applied for cDNA-Synthesis using Superscript™ First-Strand synthesis system for RT-PCR. Two samples for each compound were analyzed. The PCR reactions were carried out on an Opticon 1 (MJ Research, Waltham, Mass., USA) using SYBR Green® PCR Master Mix (Applied Biosystems, Darmstadt, Germany). For comparison of relative expression in real time PCR control cells and treated cells the 2 ^(−delta delta C(T)) method was used.

UVA-induced MMPI = details: literature statement; increase only prevented in combination with vitamin E; cited from earlier work
UVA-induced collagenases = details: literature statement; cited from earlier work
skin collagenases = details: literature statement; cited from earlier work

| Molecule | % inhibition (MMP-1) [%] | MMP-1 expression relative to UV-A only treated cells (MMP-1) [%] | effect on UVA-induced MMPI (UVA-induced MMPI) | effect on UVA-induced collagenases (UVA-induced collagenases) | effect on various skin collagenases (skin collagenases) |
| --- | --- | --- | --- | --- | --- |
| CC(C)=CCC/C(C)=C/C=C/C(C)=C/C=C/C(C)=C/C=C/C=C(C)/C=C/C=C(C)/C=C/C=C(\C)CCC=C(C)C [Lycopene, lycopene] | 65 | 35 | further increase |  |  |
| CC1=C(/C=C/C(C)=C/C=C/C(C)=C/C=C/C=C(C)/C=C/C=C(C)/C=C/C2=C(C)CCCC2(C)C)C(C)(C)CCC1 [betacarotene] |  |  |  | repress |  |
| (−)-epigallocatechin gallate [EGCG] | 13 | 87 |  |  | suppress |
